# Results taken from patent US7118895B2, “Process for producing aglycon by using diglycosidase and flavor-improved food containing the aglycon and converting agent to be used in the process” (Amano Enzyme Inc., priority 2000, dated 2006).
# System: Crude diglycosidase
# Assay: Examination of temperature in the conversion into isoflavone aglycons by diglycosidase using soybean materials
# Assay type: biochemical, Penicillium multicolor IAM7153
# Design: Decomposition efficiency of glycitin family in roasted soy flour / Decomposition efficiency of daidzin family in roasted soy flour / Decomposition efficiency of genistin family in soymilk / Decomposition efficiency of daidzin family in soymilk / Decomposition efficiency of glycitin family in defatted soybean / Decomposition efficiency of daidzin family in defatted soybean: concentration or dose not given beside the values
# Summary of the method: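 Temperature series (30-80° C.) of crude diglycosidase, diluted to 1.88 AU/mL in 20 mM acetate pH 4.0, acting on roasted soy flour, soymilk, defatted soybean or soy protein concentrate. Samples quenched with ethanol after 0-6 h, centrifuged, filtered and analyzed by HPLC for glycosides versus aglycons.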
# [1] = 30° C., heat treatment of enzyme no, reaction time 0 h
# [2] = 30° C., heat treatment of enzyme no, reaction time 1 h
# [3] = 30° C., heat treatment of enzyme no, reaction time 3 h
# [4] = 30° C., heat treatment of enzyme no, reaction time 6 h
# [5] = 30° C., heat treatment of enzyme yes, reaction time 6 h
# [6] = 45° C., heat treatment of enzyme no, reaction time 0 h
# [7] = 45° C., heat treatment of enzyme no, reaction time 1 h
# [8] = 45° C., heat treatment of enzyme no, reaction time 3 h
# [9] = 45° C., heat treatment of enzyme no, reaction time 6 h
# [10] = 45° C., heat treatment of enzyme yes, reaction time 6 h
# [11] = 45 °C, heat treatment of enzyme: no, 0 h
# [12] = 45 °C, heat treatment of enzyme: no, 1 h
# [13] = 45 °C, heat treatment of enzyme: no, 3 h
# [14] = 45 °C, heat treatment of enzyme: no, 6 h
# [15] = 45 °C, heat treatment of enzyme: yes, 6 h
# [16] = 55° C., heat treatment of enzyme no, reaction time 0 h
# [17] = 55° C., heat treatment of enzyme no, reaction time 1 h
# [18] = 55° C., heat treatment of enzyme no, reaction time 3 h
# [19] = 55° C., heat treatment of enzyme no, reaction time 6 h
# [20] = 55° C., heat treatment of enzyme yes, reaction time 6 h
# [21] = 55 °C, heat treatment of enzyme: no, 0 h
# [22] = 55 °C, heat treatment of enzyme: no, 1 h
# [23] = 55 °C, heat treatment of enzyme: no, 3 h
# [24] = 55 °C, heat treatment of enzyme: no, 6 h
# [25] = 55 °C, heat treatment of enzyme: yes, 6 h
# [26] = 65° C., heat treatment of enzyme no, reaction time 0 h
# [27] = 65° C., heat treatment of enzyme no, reaction time 1 h
# [28] = 65° C., heat treatment of enzyme no, reaction time 3 h
# [29] = 65° C., heat treatment of enzyme no, reaction time 6 h
# [30] = 65° C., heat treatment of enzyme yes, reaction time 6 h
# [31] = 65 °C, heat treatment of enzyme: no, 0 h
# [32] = 65 °C, heat treatment of enzyme: no, 1 h
# [33] = 65 °C, heat treatment of enzyme: no, 3 h
# [34] = 65 °C, heat treatment of enzyme: no, 6 h
# [35] = 65 °C, heat treatment of enzyme: yes, 6 h
# [36] = 80° C., heat treatment of enzyme no, reaction time 0 h
# [37] = 80° C., heat treatment of enzyme no, reaction time 1 h
# [38] = 80° C., heat treatment of enzyme no, reaction time 3 h
# [39] = 80° C., heat treatment of enzyme no, reaction time 6 h
# [40] = 80° C., heat treatment of enzyme yes, reaction time 6 h
# [41] = 80 °C, heat treatment of enzyme: no, 0 h
# [42] = 80 °C, heat treatment of enzyme: no, 1 h
# [43] = 80 °C, heat treatment of enzyme: no, 3 h
# [44] = 80 °C, heat treatment of enzyme: no, 6 h
# [45] = 80 °C, heat treatment of enzyme: yes, 6 h
structure (smiles),measurement,setting,value
"CC(=O)OC[C@H]1O[C@@H](Oc2ccc3c(=O)c(-c4ccc(O)cc4)coc3c2)[C@H](O)[C@@H](O)[C@@H]1O [acetyldaidzin, 6″-O-acetyldaidzin]",Decomposition efficiency of daidzin family in concentrated soybean protein,[1],44.6%
same,Decomposition efficiency of daidzin family in defatted soybean,[1],not detected
same,Decomposition efficiency of daidzin family in concentrated soybean protein,[2],44.4%
same,Decomposition efficiency of daidzin family in defatted soybean,[2],not detected
same,Decomposition efficiency of daidzin family in concentrated soybean protein,[3],43.9%
same,Decomposition efficiency of daidzin family in defatted soybean,[3],not detected
same,Decomposition efficiency of daidzin family in concentrated soybean protein,[4],43.5%
same,Decomposition efficiency of daidzin family in defatted soybean,[4],not detected
same,Decomposition efficiency of daidzin family in concentrated soybean protein,[5],42.3%
same,Decomposition efficiency of daidzin family in defatted soybean,[5],not detected
same,Decomposition efficiency of daidzin family in soymilk,"30 °C, heat treatment of enzyme: no, 0 h",not detected
same,Decomposition efficiency of daidzin family in soymilk,"30 °C, heat treatment of enzyme: no, 1 h",not detected
same,Decomposition efficiency of daidzin family in soymilk,"30 °C, heat treatment of enzyme: no, 3 h",not detected
same,Decomposition efficiency of daidzin family in soymilk,"30 °C, heat treatment of enzyme: no, 6 h",not detected
same,Decomposition efficiency of daidzin family in soymilk,"30 °C, heat treatment of enzyme: yes, 6 h",not detected
same,Decomposition efficiency of daidzin family in roasted soy flour,"35 °C, heat treatment of enzyme: no, 0 h",47.8%
same,Decomposition efficiency of daidzin family in roasted soy flour,"35 °C, heat treatment of enzyme: no, 1 h",46.9%
same,Decomposition efficiency of daidzin family in roasted soy flour,"35 °C, heat treatment of enzyme: no, 3 h",45.3%
same,Decomposition efficiency of daidzin family in roasted soy flour,"35 °C, heat treatment of enzyme: no, 6 h",39.6%
same,Decomposition efficiency of daidzin family in roasted soy flour,"35 °C, heat treatment of enzyme: yes, 6 h",43.8%
same,Decomposition efficiency of daidzin family in concentrated soybean protein,[6],44.5%
same,Decomposition efficiency of daidzin family in defatted soybean,[6],not detected
same,Decomposition efficiency of daidzin family in concentrated soybean protein,[7],44.1%
same,Decomposition efficiency of daidzin family in defatted soybean,[7],not detected
same,Decomposition efficiency of daidzin family in concentrated soybean protein,[8],41.5%
same,Decomposition efficiency of daidzin family in defatted soybean,[8],not detected
same,Decomposition efficiency of daidzin family in concentrated soybean protein,[9],42.9%
same,Decomposition efficiency of daidzin family in defatted soybean,[9],not detected
same,Decomposition efficiency of daidzin family in concentrated soybean protein,[10],0.0%
same,Decomposition efficiency of daidzin family in defatted soybean,[10],not detected
same,Decomposition efficiency of daidzin family in roasted soy flour,[11],47.7%
same,Decomposition efficiency of daidzin family in soymilk,[11],not detected
same,Decomposition efficiency of daidzin family in roasted soy flour,[12],42.9%
same,Decomposition efficiency of daidzin family in soymilk,[12],not detected
same,Decomposition efficiency of daidzin family in roasted soy flour,[13],37.9%
same,Decomposition efficiency of daidzin family in soymilk,[13],not detected
same,Decomposition efficiency of daidzin family in roasted soy flour,[14],28.5%
same,Decomposition efficiency of daidzin family in soymilk,[14],not detected
same,Decomposition efficiency of daidzin family in roasted soy flour,[15],42.5%
same,Decomposition efficiency of daidzin family in soymilk,[15],not detected
same,Decomposition efficiency of daidzin family in concentrated soybean protein,[16],44.5%
same,Decomposition efficiency of daidzin family in defatted soybean,[16],not detected
same,Decomposition efficiency of daidzin family in concentrated soybean protein,[17],44.0%
same,Decomposition efficiency of daidzin family in defatted soybean,[17],not detected
same,Decomposition efficiency of daidzin family in concentrated soybean protein,[18],40.6%
same,Decomposition efficiency of daidzin family in defatted soybean,[18],not detected
same,Decomposition efficiency of daidzin family in concentrated soybean protein,[19],37.7%
same,Decomposition efficiency of daidzin family in defatted soybean,[19],not detected
same,Decomposition efficiency of daidzin family in concentrated soybean protein,[20],42.3%
same,Decomposition efficiency of daidzin family in defatted soybean,[20],not detected
same,Decomposition efficiency of daidzin family in roasted soy flour,[21],47.5%
same,Decomposition efficiency of daidzin family in soymilk,[21],not detected
same,Decomposition efficiency of daidzin family in roasted soy flour,[22],42.8%
same,Decomposition efficiency of daidzin family in soymilk,[22],not detected
same,Decomposition efficiency of daidzin family in roasted soy flour,[23],32.5%
same,Decomposition efficiency of daidzin family in soymilk,[23],not detected
same,Decomposition efficiency of daidzin family in roasted soy flour,[24],26.7%
same,Decomposition efficiency of daidzin family in soymilk,[24],not detected
same,Decomposition efficiency of daidzin family in roasted soy flour,[25],43.6%
same,Decomposition efficiency of daidzin family in soymilk,[25],not detected
same,Decomposition efficiency of daidzin family in concentrated soybean protein,[26],44.6%
same,Decomposition efficiency of daidzin family in defatted soybean,[26],not detected
same,Decomposition efficiency of daidzin family in concentrated soybean protein,[27],44.3%
same,Decomposition efficiency of daidzin family in defatted soybean,[27],not detected
same,Decomposition efficiency of daidzin family in concentrated soybean protein,[28],42.9%
same,Decomposition efficiency of daidzin family in defatted soybean,[28],not detected
same,Decomposition efficiency of daidzin family in concentrated soybean protein,[29],41.6%
same,Decomposition efficiency of daidzin family in defatted soybean,[29],not detected
same,Decomposition efficiency of daidzin family in concentrated soybean protein,[30],43.6%
same,Decomposition efficiency of daidzin family in defatted soybean,[30],not detected
same,Decomposition efficiency of daidzin family in roasted soy flour,[31],47.8%
same,Decomposition efficiency of daidzin family in soymilk,[31],not detected
same,Decomposition efficiency of daidzin family in roasted soy flour,[32],43.7%
same,Decomposition efficiency of daidzin family in soymilk,[32],not detected
same,Decomposition efficiency of daidzin family in roasted soy flour,[33],40.2%
same,Decomposition efficiency of daidzin family in soymilk,[33],not detected
same,Decomposition efficiency of daidzin family in roasted soy flour,[34],37.8%
same,Decomposition efficiency of daidzin family in soymilk,[34],not detected
same,Decomposition efficiency of daidzin family in roasted soy flour,[35],46.1%
same,Decomposition efficiency of daidzin family in soymilk,[35],not detected
same,Decomposition efficiency of daidzin family in concentrated soybean protein,[36],44.5%
same,Decomposition efficiency of daidzin family in defatted soybean,[36],not detected
same,Decomposition efficiency of daidzin family in concentrated soybean protein,[37],45.5%
same,Decomposition efficiency of daidzin family in defatted soybean,[37],not detected
same,Decomposition efficiency of daidzin family in concentrated soybean protein,[38],44.7%
same,Decomposition efficiency of daidzin family in defatted soybean,[38],not detected
same,Decomposition efficiency of daidzin family in concentrated soybean protein,[39],43.8%
same,Decomposition efficiency of daidzin family in defatted soybean,[39],not detected
same,Decomposition efficiency of daidzin family in concentrated soybean protein,[40],42.3%
same,Decomposition efficiency of daidzin family in defatted soybean,[40],not detected
same,Decomposition efficiency of daidzin family in roasted soy flour,[41],47.7%
same,Decomposition efficiency of daidzin family in soymilk,[41],not detected
same,Decomposition efficiency of daidzin family in roasted soy flour,[42],49.1%
same,Decomposition efficiency of daidzin family in soymilk,[42],not detected
same,Decomposition efficiency of daidzin family in roasted soy flour,[43],47.9%
same,Decomposition efficiency of daidzin family in soymilk,[43],not detected
same,Decomposition efficiency of daidzin family in roasted soy flour,[44],46.7%
same,Decomposition efficiency of daidzin family in soymilk,[44],not detected
same,Decomposition efficiency of daidzin family in roasted soy flour,[45],45.0%
same,Decomposition efficiency of daidzin family in soymilk,[45],not detected
